From patent US20260109699A1, “AZOLE DERIVATIVES AS SHP2 INHIBITORS” (IRBM S.P.A., priority 2022, published 2026)

Assays:
[1] = biological target: T1, SHP-2 enzyme (Met1-Leu525), SHP2wt (Homo sapiens, UniProt Q06124); assay: SHP2 inhibition enzymatic assay; format: biochemical; conditions: 0.5 nM SHP-2 activated by 500 nM IRS1 peptide, 75 μM DiFMUP substrate
T1 construct: synthetized by Origene, Met1-Leu525, cat #TP750155; purchased Origene TP750155
T1 sequence (Q06124 1-525): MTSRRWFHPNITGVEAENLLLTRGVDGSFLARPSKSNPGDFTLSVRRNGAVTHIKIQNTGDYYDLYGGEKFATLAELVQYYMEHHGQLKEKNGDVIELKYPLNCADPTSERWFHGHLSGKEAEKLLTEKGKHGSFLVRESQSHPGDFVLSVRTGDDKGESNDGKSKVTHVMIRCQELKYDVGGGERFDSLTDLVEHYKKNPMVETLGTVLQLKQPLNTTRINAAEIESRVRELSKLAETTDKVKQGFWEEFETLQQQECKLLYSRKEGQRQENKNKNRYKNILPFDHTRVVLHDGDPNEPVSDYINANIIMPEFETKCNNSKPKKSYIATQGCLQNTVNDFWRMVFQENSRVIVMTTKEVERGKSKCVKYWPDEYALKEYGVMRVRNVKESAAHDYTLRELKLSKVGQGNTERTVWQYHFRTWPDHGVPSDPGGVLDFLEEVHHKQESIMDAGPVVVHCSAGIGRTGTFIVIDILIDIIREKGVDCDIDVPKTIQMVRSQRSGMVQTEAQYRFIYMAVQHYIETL
Protocol: The assay was performed as described in YP Chen et al, Nature (535) 2016. Assay volume of 20 μL/well was assembled in 384 well black polystyrene low-binding microplates (Greiner), using the following buffer: 60 mM HEPES pH 7.2, 75 mM NaCl, 75 mM KCl, 1 mM EDTA pH 8, 0.05% tween-20, 5 mM DTT. The SHP-2 enzyme (synthetized by Origene, Met1-Leu525, cat #TP750155) was used at a final concentration of 0.5 nM. The enzyme was activated by 500 nM IRS1 peptide (sequence: H2N-LN(pY)IDLDLV(dPEG8)LST(pY)ASINFQK-amide; Wang et al., iScience 25,104009, Apr. 15, 2022, https://doi.org/10.1016/j.isci.2022.104009) and incubated with 75 μM DiFMUP (Sigma) as substrate.
Briefly, DMSO serially diluted testing compounds were transferred to the bottom of the assay plate. SHP2 was then added together with the IRS1 peptide 30 min post incubation, the DiFMUP substrate was added to the reaction and incubated 30 min at rt. Finally 5 μL of 160 μM bpV (potassium bisperoxo[1,10-phenanthroline]oxovanadate [V], Sigma) were added to stop and quench the reaction. The fluorescence was detected by a microplate reader (Envision, PerkinElmer) according to the DiFMUP excitation and emission wavelength. The lower the fluorescence the higher the SHP2 inhibition.
The activity of each compound dilution was calculated as percentage of inhibition between vehicle (DMSO, 0% inhibition) and no enzyme (100% inhibition). The percentage inhibition is fitted against the compound dilutions with a four-parameter logistic regression. The inflection point (i.e. the concentration at which half-maximal inhibition is achieved) is the IC50.
Legend: A indicates IC50 less or equal to 0.05 μM; B indicates IC50 greater than 0.05 μM and lower or equal to 0.3 μM.

[2] = test system: phospho-ERK1/2 (Thr202/Tyr204); assay: Phospho-ERK cellular assay; format: cell-based; conditions: Homo sapiens; KYSE-520 cells, 2 h at 37° C, TR-FRET; read-out: pERK IC50
Protocol: ERK phosphorylation was detected using the “Advanced phospho-ERK1/2 (Thr202/Tyr204)” TR-FRET kit (Cisbio, Cat #64AERPEG/H), following the manufacturer reagents and instructions.
Briefly, 20.000/well KYSE-520 cells (DSMZ ACC 371) were plated in 6 μL RPMI-1640 (Invitrogen) growth medium, into 384 white low-volume high base TC microplates (Greiner). After an overnight incubation, cells were treated with DMSO serial diluted compounds and incubated for 2 h at 37° C. After incubation, 2 μL/well of 4×Lysis Buffer (Cisbio 64KL1FDF), were added and incubated with cells for 30 min on gentle shaking. Finally, lysates were added with 2 μL/well of Eu cryptate (donor) and D2 (acceptor) conjugated antibodies (as provided by the Cisbio kit #64AERPEG/H) diluted 1:100 in Detection Buffer (as provided by the Cisbio kit #64AERPEG/H). Plates were then sealed and incubated at rt in the dark. After an overnight incubation, the TR-FRET signal was detected on a suitable reader (Envision, PerkinElmer).
The lower the TR-FRET signal the higher the higher the SHP2 inhibition in cells.
The activity of each compound dilution was calculated as percentage between vehicle DMSO treated cells and no cells, 0% inhibition and 100% inhibition respectively. The percentage activity is fitted against the compound dilutions with a four-parameter logistic regression. The inflection point (i.e. the concentration at which half-maximal inhibition is achieved) is the IC50.
Legend: “+” indicates IC50 equal or higher than 0.5 μM; “++” indicates IC50 less than 0.5 μM and higher or equal to 0.1 μM; “+++” indicates IC50 less than 0.1 μM.

| Structure (SMILES) | IC50 [1] | IC50 [2] |
| --- | --- | --- |
| N[C@@H]1c2ccnn2CC12CCN(c1cnc(Sc3ccncc3)cn1)CC2 [Example 25, (S)-1-(5-(pyridin-4-ylthio)pyrazin-2-yl)-4′H,6′H-spiro[piperidine-4,5′-pyrrolo[1,2-b]pyrazol]-4′-amine] | ≤ 50 nM | < 100 nM |
| Cc1ccccc1Sc1cnc(N2CCC3(CC2)Cn2nccc2[C@H]3N)cn1 [Example 26, (S)-1-(5-(o-tolylthio)pyrazin-2-yl)-4′H,6′H-spiro[piperidine-4,5′-pyrrolo[1,2-b]pyrazol]-4′-amine] | ≤ 50 nM | < 100 nM |
| CC(C)c1ccccc1Sc1cnc(N2CCC3(CC2)Cn2nccc2[C@H]3N)cn1 [Example 27, (S)-1-(5-((2-isopropylphenyl)thio)pyrazin-2-yl)-4′H,6′H-spiro[piperidine-4,5′-pyrrolo[1,2-b]pyrazol]-4′-amine] | ≤ 50 nM | < 100 nM |
| N[C@@H]1c2cccn2CC12CCN(c1cnc(Sc3cccc(Cl)c3Cl)cn1)CC2 [Example 28, (S)-1-(5-((2,3-dichlorophenyl)thio)pyrazin-2-yl)-1′H,3′H-spiro[piperidine-4,2′-pyrrolizin]-1′-amine] | ≤ 50 nM | < 100 nM |
| N[C@@H]1c2c(F)ccn2CC12CCN(c1cnc(Sc3cccc(Cl)c3Cl)cn1)CC2 [Example 29, (S)-1-(5-((2,3-dichlorophenyl)thio)pyrazin-2-yl)-7′-fluoro-1′H,3′H-spiro[piperidine-4,2′-pyrrolizin]-1′-amine] | ≤ 50 nM | < 100 nM |
| N[C@@H]1c2ccnn2CC12CCN(c1cnc(Sc3cccc(F)c3Cl)cn1)CC2 [Example 30, (S)-1-(5-((2-chloro-3-fluorophenyl)thio)pyrazin-2-yl)-4′H,6′H-spiro[piperidine-4,5′-pyrrolo[1,2-b]pyrazol]-4′-amine] | ≤ 50 nM | < 100 nM |
| N[C@@H]1c2ccnn2CC12CCN(c1cnc(-c3cccc(Cl)c3Cl)cn1)CC2 [Example 31, (S)-1-(5-(2,3-dichlorophenyl)pyrazin-2-yl)-4′H,6′H-spiro[piperidine-4,5′-pyrrolo[1,2-b]pyrazol]-4′-amine] | ≤ 50 nM | > 500 nM |
| N[C@@H]1c2ccnn2CC12CCN(c1cnc(Sc3ccc(F)cc3F)cn1)CC2 [Example 32, (S)-1-(5-((2,4-difluorophenyl)thio)pyrazin-2-yl)-4′H,6′H-spiro[piperidine-4,5′-pyrrolo[1,2-b]pyrazol]-4′-amine] | ≤ 50 nM | < 100 nM |
| Cc1c(Cl)cccc1Sc1cnc(N2CCC3(CC2)Cn2nccc2[C@H]3N)cn1 [Example 33, (S)-1-(5-((3-chloro-2-methylphenyl)thio)pyrazin-2-yl)-4′H,6′H-spiro[piperidine-4,5′-pyrrolo[1,2-b]pyrazol]-4′-amine] | ≤ 50 nM | < 100 nM |
| N[C@@H]1c2ccnn2CC12CCN(c1cnc(Sc3ccc(F)cc3Cl)cn1)CC2 [Example 34, (S)-1-(5-((2-chloro-4-fluorophenyl)thio)pyrazin-2-yl)-4′H,6′H-spiro[piperidine-4,5′-pyrrolo[1,2-b]pyrazol]-4′-amine] | ≤ 50 nM | < 100 nM |
| Cc1cccc(Sc2cnc(N3CCC4(CC3)Cn3nccc3[C@H]4N)cn2)c1Cl [Example 35, (S)-1-(5-((2-chloro-3-methylphenyl)thio)pyrazin-2-yl)-4′H,6′H-spiro[piperidine-4,5′-pyrrolo[1,2-b]pyrazol]-4′-amine] | ≤ 50 nM | < 100 nM |
| COc1cccc2c(Sc3cnc(N4CCC5(CC4)Cn4nccc4[C@H]5N)cn3)ccnc12 [Example 37, (S)-1-(5-((8-methoxyquinolin-4-yl)thio)pyrazin-2-yl)-4′H,6′H-spiro[piperidine-4,5′-pyrrolo[1,2-b]pyrazol]-4′-amine] | ≤ 50 nM | < 100 nM |
| N[C@@H]1c2ccnn2CC12CCN(c1cnc(Sc3cccc4c3CCO4)cn1)CC2 [Example 38, (S)-1-(5-((2,3-dihydrobenzofuran-4-yl)thio)pyrazin-2-yl)-4′H,6′H-spiro[piperidine-4,5′-pyrrolo[1,2-b]pyrazol]-4′-amine] | ≤ 50 nM | 100 to 500 nM |
| Cc1cc(Cl)ccc1Sc1cnc(N2CCC3(CC2)Cn2nccc2[C@H]3N)cn1 [Example 40, (S)-1-(5-((4-chloro-2-methylphenyl)thio)pyrazin-2-yl)-4′H,6′H-spiro[piperidine-4,5′-pyrrolo[1,2-b]pyrazol]-4′-amine] | ≤ 50 nM | 100 to 500 nM |
| N[C@@H]1c2ccnn2CC12CCN(c1cnc(Sc3ccccc3C(F)(F)F)cn1)CC2 [Example 41, (S)-1-(5-((2-(trifluoromethyl)phenyl)thio)pyrazin-2-yl)-4′H,6′H-spiro[piperidine-4,5′-pyrrolo[1,2-b]pyrazol]-4′-amine] | ≤ 50 nM | < 100 nM |
| N[C@@H]1c2ccnn2CC12CCN(c1cnc(Sc3ccc4c(c3)CCO4)cn1)CC2 [Example 42, (S)-1-(5-((2,3-dihydrobenzofuran-5-yl)thio)pyrazin-2-yl)-4′H,6′H-spiro[piperidine-4,5′-pyrrolo[1,2-b]pyrazol]-4′-amine] | ≤ 50 nM | < 100 nM |
| N#Cc1cccc(Sc2cnc(N3CCC4(CC3)Cn3nccc3[C@H]4N)cn2)c1C(F)(F)F [Example 43, (S)-3-((5-(4′-amino-4′H,6′H-spiro[piperidine-4,5′-pyrrolo[1,2-b]pyrazol]-1-yl)pyrazin-2-yl)thio)-2-(trifluoromethyl)benzonitrile] | ≤ 50 nM | < 100 nM |
| N[C@@H]1c2ccnn2CC12CCN(c1cnc(Sc3cccc4c3CCC4)cn1)CC2 [Example 46, (S)-1-(5-((2,3-dihydro-1H-inden-4-yl)thio)pyrazin-2-yl)-4′H,6′H-spiro[piperidine-4,5′-pyrrolo[1,2-b]pyrazol]-4′-amine] | ≤ 50 nM | < 100 nM |
| Cc1cccc(Sc2cnc(N3CCC4(CC3)Cn3nccc3[C@H]4N)cn2)c1C [Example 47, (S)-1-(5-((2,3-dimethylphenyl)thio)pyrazin-2-yl)-4′H,6′H-spiro[piperidine-4,5′-pyrrolo[1,2-b]pyrazol]-4′-amine] | ≤ 50 nM | < 100 nM |
| N[C@@H]1c2ccnn2CC12CCN(c1cnc(Sc3cc(F)ccc3F)cn1)CC2 [Example 48, (S)-1-(5-((2,5-difluorophenyl)thio)pyrazin-2-yl)-4′H,6′H-spiro[piperidine-4,5′-pyrrolo[1,2-b]pyrazol]-4′-amine] | ≤ 50 nM | < 100 nM |
| N[C@@H]1c2ccnn2CC12CCN(c1cnc(Sc3ccc(F)c(F)c3F)cn1)CC2 [Example 49, (S)-1-(5-((2,3,4-trifluorophenyl)thio)pyrazin-2-yl)-4′H,6′H-spiro[piperidine-4,5′-pyrrolo[1,2-b]pyrazol]-4′-amine] | ≤ 50 nM | < 100 nM |
